Where two headings read alike, the source gives them in different places.

The source of these data is patent US9901577B2, “Oxoquinazolinyl-butanamide derivatives” (MERCK PATENT GMBH, priority 2013, dated 2018).

One test has as its system DLD-1-cancer cells. Conditions: Huang et al., 2009; cited from earlier work.
The next test relates to β-catenin. Conditions: by increasing the levels of AXIN1 and AXIN2 proteins; cited from earlier work.
In test [1] the test system is Tankyrase. Kind of test: Measurement of cellular inhibition of Tankyrase (Axin2 level in DLD1 cells, Luminex based assay). Type of test: cell-based. Conditions: for EC50: prior art compounds. On the procedure: (§1) Measurement of Cellular Inhibition of Tankyrase
(§2) Cells of the colon carcinoma cell line DLD1 are plated in 96 well plates with 1.5×10^4 cells per well. Next day, cells are treated with a serial dilution of test compound in seven steps as triplicates with a final DMSO concentration of 0.3%. […] The amount of isolated Axin2 protein is determined in a Luminex^200 machine (Luminex Corporation) according to the manufacturer's instruction by counting 100 events per well. […] As controls cells are treated with solvent alone (neutral control) and with a Tankyrase reference inhibitor IWR-2 (3E-06 M) which refers as control for maximum increase of Axin2. For analysis, the obtained data are normalized against the untreated solvent control and fitted for determination of the EC50 values using the Assay Explorer software (Accelrys).

The next test addresses T1, TNKS1 (Homo sapiens, UniProt O95271).
T1 construct: GST-tagged Tnks-1 (1023-1327 aa, prepared in-house); made in house
Kind of test: TNKS1 activity ELISA (autoparsylation assay). Type of test: biochemical. On the procedure: (§3) Description of the TNKS1 and TNKS2 ELISA Assay
(§4) Biochemical Activity Testing of TNKS 1 and 2: Activity ELISA (Autoparsylation Assay)
(§5) For analysis of autoparsylation activity of TNKS 1 and 2 an activity ELISA iss performed: In the first step GST tagged TNKS is captured on a Glutathione coated plate. Then the activity assay with biotinylated NAD is performed in the absence/presence of the compounds. During the enzymatic reaction GST tagged TNKS transfers biotinylated ADP-ribose to itself from biotinylated NAD as co-substrate. For the detection streptavidin-HRP conjugate is added that binds to the biotinylated TNKS and is thereby captured to the plates. The amount of biotinylated resp. autoparsylated TNKS is detected with a luminescence substrate for HRP. The level of the luminescence signal correlates directly with the amount of autoparsylated TNKS and therefore with activity of TNKS.
(§6) The activity ELISA is performed in 384 well Glutathione coated microtiter plates (Express capture Glutathione coated plate, Biocat, Heidelberg, Germany). The plates are pre-equilibrated with PBS. […] The plates are washed 3 times with PBS-Tween-20. The wells are blocked by incubation at room temperature for 20 minutes with 50 μl blocking buffer (PBS, 0.05% Tween-20, 0.5% BSA). Afterwards the plates are washed 3 times with PBS-Tween-20. […] The reaction is stopped by 3 times washing with PBS-Tween-20. For the detection 50 μl of 20 ng/μl Streptavidin, HRP conjugate (MoBiTec, Göttingen, Germany) in PBS/0.05% Tween-20/0.01% BSA are added and the plates are incubated for 30 minutes at room temperature. After three times washing with PBS-Tween-20 50 μl of SuperSignal ELISA Femto Maximum sensitivity substrate solution (ThermoFisherScientific (Pierce), Bonn, Germany) are added. Following a 1 minute incubation at room temperature luminescence signals are measured with an Envision multimode reader (Perkin Elmer LAS Germany GmbH) at 700 nm. The full value used is the inhibitor-free reaction. […] The inhibitory values (IC50) are determined using either the program Symyx Assay Explorer® or Condosseo® from GeneData.
(In general: In an ELISA, binding on a coated surface is turned into a signal by an enzyme label.)

Another test deals with T2, TNKS2 (Homo sapiens, UniProt Q9H2K2).
T2 construct: GST-tagged Tnks-2 (873-1166 aa, prepared in-house); made in house
Kind of test: TNKS2 activity ELISA (autoparsylation assay). It is filed as biochemical. On the procedure: as §3, §4, §5, §6

For test [2], the system named is T3, Tankyrase.
T3 construct: TNKS cellular assay; other: DLD1 cells, Axin2 increase, 24 hours
Kind of test: Measurement of cellular inhibition of Tankyrase (Axin2 level in DLD1 cells, Luminex based assay). It is filed as cell-based. The conditions noted are these: read-out: EC50 [M] TNKS cellular assay; DLD1 cells, Axin2 increase, 24 hours. On the procedure:
as §1, §2

The target in the next test is T4, PARP-1 (Homo sapiens, UniProt P09874).
T4 construct: purchased Enzo Life Sciences GmbH, Lörrach, Germany
Kind of test: PARP-1 autoparsylation assay (HTRF). Type of test: biochemical. The conditions noted are these: His-tagged Parp-1, autoparsylation. (Time-resolved FRET reads energy transfer from a long-lived donor to a nearby acceptor.)

The mark [3] stands for this setting: prior art compounds, read-out: IC50 (TNKS1).
Where [4] appears, read: GST-tagged Tnks-1, read-out: IC50 [M] TNKS1 ELISA.
[5] abbreviates: GST-tagged Tnks-2, read-out: IC50 [M] TNKS2 ELISA.

T4 sequence (P09874 whole entry): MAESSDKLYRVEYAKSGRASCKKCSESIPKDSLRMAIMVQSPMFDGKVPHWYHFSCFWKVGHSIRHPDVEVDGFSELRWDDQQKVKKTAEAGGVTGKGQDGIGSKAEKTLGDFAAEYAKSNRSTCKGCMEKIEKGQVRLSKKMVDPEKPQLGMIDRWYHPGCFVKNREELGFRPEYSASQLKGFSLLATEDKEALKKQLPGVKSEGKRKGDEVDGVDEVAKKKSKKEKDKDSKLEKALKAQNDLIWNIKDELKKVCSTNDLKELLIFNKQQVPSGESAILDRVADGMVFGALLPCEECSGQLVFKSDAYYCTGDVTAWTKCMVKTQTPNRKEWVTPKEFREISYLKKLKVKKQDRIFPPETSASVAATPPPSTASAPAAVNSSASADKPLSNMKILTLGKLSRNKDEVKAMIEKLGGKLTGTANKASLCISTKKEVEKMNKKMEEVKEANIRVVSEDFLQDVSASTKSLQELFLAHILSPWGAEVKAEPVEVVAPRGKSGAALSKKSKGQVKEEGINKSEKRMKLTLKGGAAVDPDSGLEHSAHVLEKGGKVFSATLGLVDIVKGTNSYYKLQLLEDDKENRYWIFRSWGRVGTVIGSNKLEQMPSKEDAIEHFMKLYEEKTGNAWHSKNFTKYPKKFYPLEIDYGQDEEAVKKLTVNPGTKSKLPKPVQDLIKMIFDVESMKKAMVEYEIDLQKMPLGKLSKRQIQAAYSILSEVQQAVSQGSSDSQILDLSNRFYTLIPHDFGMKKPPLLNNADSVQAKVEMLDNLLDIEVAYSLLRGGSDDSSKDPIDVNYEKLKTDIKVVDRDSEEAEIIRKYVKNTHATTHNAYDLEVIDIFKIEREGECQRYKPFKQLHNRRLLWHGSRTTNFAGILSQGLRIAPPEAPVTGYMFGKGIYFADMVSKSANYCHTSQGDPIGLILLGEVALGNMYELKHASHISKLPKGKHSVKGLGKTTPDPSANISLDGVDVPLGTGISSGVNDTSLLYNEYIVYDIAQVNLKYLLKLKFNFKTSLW
T1 sequence (O95271 1023-1327): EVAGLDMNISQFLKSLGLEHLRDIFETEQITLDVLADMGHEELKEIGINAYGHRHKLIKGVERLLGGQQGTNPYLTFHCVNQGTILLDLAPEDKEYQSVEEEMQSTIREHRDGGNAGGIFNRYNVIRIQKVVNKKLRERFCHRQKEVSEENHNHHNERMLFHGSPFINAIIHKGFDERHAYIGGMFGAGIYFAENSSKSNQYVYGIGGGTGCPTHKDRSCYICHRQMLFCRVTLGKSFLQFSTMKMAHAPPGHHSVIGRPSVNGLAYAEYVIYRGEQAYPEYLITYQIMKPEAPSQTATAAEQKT
T2 sequence (Q9H2K2 873-1166): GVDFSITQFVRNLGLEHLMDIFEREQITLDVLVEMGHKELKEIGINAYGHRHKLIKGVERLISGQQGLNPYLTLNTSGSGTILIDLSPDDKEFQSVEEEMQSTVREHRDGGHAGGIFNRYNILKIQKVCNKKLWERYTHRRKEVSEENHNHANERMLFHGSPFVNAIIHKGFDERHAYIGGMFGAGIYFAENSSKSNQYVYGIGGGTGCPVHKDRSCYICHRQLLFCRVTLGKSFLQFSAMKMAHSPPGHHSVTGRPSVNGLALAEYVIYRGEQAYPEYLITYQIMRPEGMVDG

As for `Oc1nc(-c2ccc(C(F)(F)F)cc2)nc2c1CSCC2` [XAV939], the “growth of DLD-1-cancer cells” value with DLD-1-cancer cells is “inhibits growth”. Further, in the test with β-catenin, the “Wnt-stimulated accumulation of β-catenin” value is reported as “blocked Wnt-stimulated accumulation of β-catenin”.

Regarding `O=c1[nH]c(-c2ccc3c(c2)OCO3)nc2ccccc12` [reference compound], the “cellular assay: effect” value in the test with Tankyrase [1] (at 30 μM, prior art compound) is on record as “no effect”. Moreover, the IC50 (as a rule, the concentration at which inhibition is half-maximal) on TNKS1 (setting [3]) turned out to be 5.9e-07 M; on TNKS2 (prior art compounds, read-out: IC50 (TNKS2)), 6e-07 M.

For `COc1ccc(C(=O)C2CCN(CC(=O)N(Cc3nc4c(c(=O)[nH]3)COCC4)CC3CC3)CC2)cc1` [reference compound], in the test with Tankyrase [1], the EC50 (in general, the concentration needed to bring the measured effect to its halfway point) came out at 35 nM. For the same molecule, at TNKS1 (setting [3]), the IC50 worked out at 2e-09 M.

Consider `COc1ccccc1NC(=O)c1ccc(NC(=O)CCc2nc3ccccc3c(=O)[nH]2)cc1` [reference compound], for which the EC50 in the test with Tankyrase [1] was 320 nM. Besides, the IC50 on TNKS1 (setting [3]) was 7.4e-09 M.

For the molecule `COc1ccc(C(=O)C2CCN(C(=O)CCCc3nc4c(F)cccc4c(=O)[nH]3)CC2)cn1` [Compound A33, 8-Fluoro-2-{4-[4-(6-methoxy-pyridine-3-carbonyl)-piperidin-1-yl]-4-oxo-butyl}-3H-quinazolin-4-one], in the test with Tankyrase [2], the EC50 turned out to be 1.3e-08 M. Also, the IC50 at PARP-1 amounted to 5000 nM; at TNKS1 (setting [4]), 1.3e-09 M; at TNKS2 (setting [5]), 5.2e-10 M.

Consider `COc1ccc(C(=O)C2CCN(C(=O)CCCc3nc4c(F)cc(F)cc4c(=O)[nH]3)CC2)cc1C` [Compound A14, 6,8-difluoro-2-[4-[4-(4-methoxy-3-methyl-benzoyl)-1-piperidyl]-4-oxo-butyl]-3H-quinazolin-4-one], for which the EC50 in the test with Tankyrase [2] stood at 3.3e-09 M. Further, the figures for the IC50 on PARP-1, at TNKS1 (setting [4]) and on TNKS2 (setting [5]) were 1000 nM, 8.6e-11 M and 1.6e-10 M, respectively.

As for `Nc1ncc(C2CCN(C(=O)CCCc3nc4ccc(F)cc4c(=O)[nH]3)CC2)cc1-c1ncccn1` [Compound A32, 2-[4-(6-Amino-5-pyrimidin-2-yl-3′,4′,5′,6′-tetrahydro-2′H-[3,4]bipyridinyl-1′-yl)-4-oxo-butyl]-6-fluoro-3H-quinazolin-4-one], in the test with Tankyrase [2], the EC50 is 2.3e-09 M. For the same molecule, the IC50 was 600 nM against PARP-1, 3.2e-10 M on TNKS1 (setting [4]) and 3.4e-10 M at TNKS2 (setting [5]).
